Laboratory results: the NIST ThermoML archive (doi:10.1021/je800463k)

Assay: mn = molality of the nth substance listed, in mol/kg
Settings: 101 kPa, Liquid; for electrical conductivity: Frequency=0.001 MHz, Alternating current cell with electrodes; for speed of sound: Frequency=2 MHz; for mass density: Pycnometric method

O=[N+]([O-])[O-].O=[N+]([O-])[O-].[Mg+2] [magnesium nitrate] + CO
Settings	electrical conductivity [S/m]	mass density [kg/m3]	speed of sound [m/s]	viscosity [mPa·s]
288.15 K, m1 = 0.0082	–	–	1141.9	0.6479
288.15 K, m1 = 0.0545	–	–	1145.7	0.69
288.15 K, m1 = 0.0667	0.393	–	1147.2	0.7149
288.15 K, m1 = 0.1047	0.5164	–	1152.3	0.743
288.15 K, m1 = 0.2776	0.9691	–	1170.8	0.8665
288.15 K, m1 = 0.4024	1.214	–	1182.6	1.016
288.15 K, m1 = 0.4555	1.267	–	1188.5	1.06
288.15 K, m1 = 0.6276	1.489	–	1203	1.408
288.15 K, m1 = 0.782	1.639	–	1221.6	1.556
288.15 K, m1 = 0.881	1.678	–	1225.4	1.575
288.15 K, m1 = 0.9116	1.69	–	1231.2	1.679
288.15 K, m1 = 1.004	1.744	–	1245.4	1.828
288.15 K, m1 = 1.259	1.772	–	1266.8	2.586
288.15 K, m1 = 1.492	1.746	–	1292.2	3.198
288.15 K, m1 = 1.71	1.738	–	1311.9	3.978
288.15 K, m1 = 1.875	1.698	–	1320.1	4.642
293.15 K, m1 = 0.0082	0.1341	–	1123.3	0.6014
293.15 K, m1 = 0.0545	0.3807	–	1129	0.6412
293.15 K, m1 = 0.0667	0.412	–	1130.5	0.6621
293.15 K, m1 = 0.1047	0.5415	–	1134.7	0.6872
293.15 K, m1 = 0.2776	1.021	–	1154.7	0.7989
293.15 K, m1 = 0.4024	1.277	–	1165.8	0.9313
293.15 K, m1 = 0.4555	1.341	–	1172.6	0.9778
293.15 K, m1 = 0.6276	1.584	–	1187.3	1.271
293.15 K, m1 = 0.782	1.752	–	1205.7	1.415
293.15 K, m1 = 0.881	1.797	–	1212	1.429
293.15 K, m1 = 0.9116	1.811	–	1215.2	1.517
293.15 K, m1 = 1.004	1.873	–	1229.3	1.65
293.15 K, m1 = 1.259	1.917	–	1250.2	2.306
293.15 K, m1 = 1.492	1.9	–	1275.7	2.833
293.15 K, m1 = 1.71	1.902	–	1295.5	3.5
293.15 K, m1 = 1.875	1.866	–	1304	4.058
298.15 K, m1 = 0.0082	0.1401	–	1108.5	0.5595
298.15 K, m1 = 0.0545	0.3953	–	1115.7	0.5957
298.15 K, m1 = 0.0667	0.4305	–	1113.6	0.6148
298.15 K, m1 = 0.1047	0.5657	–	1118.5	0.6361
298.15 K, m1 = 0.2776	1.073	–	1138.2	0.7381
298.15 K, m1 = 0.4024	1.343	–	1149	0.8609
298.15 K, m1 = 0.4555	1.416	–	1155.9	0.8966
298.15 K, m1 = 0.6276	1.68	–	1171.1	1.146
298.15 K, m1 = 0.782	1.866	–	1188.8	1.287
298.15 K, m1 = 0.881	1.918	–	1195.8	1.301
298.15 K, m1 = 0.9116	1.933	–	1198.8	1.369
298.15 K, m1 = 1.004	2.005	–	1212.9	1.491
298.15 K, m1 = 1.259	2.065	–	1232.2	2.078
298.15 K, m1 = 1.492	2.06	–	1259.5	2.541
298.15 K, m1 = 1.71	2.073	–	1279.9	3.094
298.15 K, m1 = 1.875	2.039	–	1288.1	3.556
300.6 K, m1 = 0.1047	–	798.24	–	–
300.7 K, m1 = 0.6276	–	850.07	–	–
300.8 K, m1 = 0.881	–	871.54	–	–
301.1 K, m1 = 1.492	–	934.05	–	–
